According to article PMC2667211, “Kinase Domain Insertions Define Distinct Roles of CLK Kinases in SR Protein Phosphorylation” (Structure(London, England:1993), 2009):

Columns and labels:
CLK1 = CLK1 (Homo sapiens, UniProt P49759); test: coupled-enzyme kinase assay at […] inhibitor; thermal shift […]°C; type: biochemical
CLK3 = molecular target: T1, CLK3 (Homo sapiens, UniProt P49761); test: kinase assay at […] inhibitor; thermal shift screening; type: biochemical
T1 construct: kinase domain, residues 127–484
T1 sequence (P49761 127-484): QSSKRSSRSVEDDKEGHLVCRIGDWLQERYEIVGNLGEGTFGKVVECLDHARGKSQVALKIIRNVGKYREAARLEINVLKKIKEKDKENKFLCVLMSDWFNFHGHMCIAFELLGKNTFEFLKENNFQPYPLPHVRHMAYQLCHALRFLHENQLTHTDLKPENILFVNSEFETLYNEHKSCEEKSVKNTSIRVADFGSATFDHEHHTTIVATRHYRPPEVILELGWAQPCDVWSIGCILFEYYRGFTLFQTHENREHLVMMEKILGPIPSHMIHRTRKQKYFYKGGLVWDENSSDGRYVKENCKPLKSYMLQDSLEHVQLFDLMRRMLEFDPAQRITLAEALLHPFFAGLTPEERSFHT

Sequence of CLK1 (P49759 148-484): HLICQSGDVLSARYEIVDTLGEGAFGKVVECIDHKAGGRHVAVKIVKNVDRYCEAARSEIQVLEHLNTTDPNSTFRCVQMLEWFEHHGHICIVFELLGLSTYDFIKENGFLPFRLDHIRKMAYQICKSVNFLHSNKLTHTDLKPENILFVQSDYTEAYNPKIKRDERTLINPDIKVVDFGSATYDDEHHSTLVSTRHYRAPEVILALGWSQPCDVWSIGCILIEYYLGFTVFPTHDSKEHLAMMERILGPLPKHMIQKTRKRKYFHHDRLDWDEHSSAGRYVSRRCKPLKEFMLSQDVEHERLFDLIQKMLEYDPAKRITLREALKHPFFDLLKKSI

% activity at 100 nM (CLK1): < 1 | % activity at 100 nM (CLK3): < 50
SMILES: Nc1nc(Nc2ccc(S(N)(=O)=O)cc2)nn1C(=S)Nc1c(F)cccc1F [compound 11, CDK1/2 inhibitor]
